The results in this text go back to patent US20210284639A1, “TYROSINE AMIDE DERIVATIVES AS RHO- KINASE INHIBITORS” (CHIESI FARMACEUTICI S.p.A., priority 2018, published 2021).

Where only a bound is given, the exact number is not on record here.

Assay [1] concerns the target ROCK 2 (Rho kinase 2) (Homo sapiens, UniProt O75116). As to the kind of experiment: In vitro inhibitory activity assay (ADP-Glo), Rho kinase 2. Format: biochemical. The settings on record: Ki by Cheng-Prusoff from IC50; 10 μM ATP, 25° C. How it is done: (§1) In Vitro Inhibitory Activity Assay Description
(§2) The effectiveness of compounds of the present invention to inhibit Rho kinase activity can be determined in a 10 μl assay containing 40 mM Tris pH7.5, 20 mM MgCl2 0.1 mg/ml BSA, 50 μM DTT and 2.5 μM peptide substrate (Myelin Basic Protein) using an ADP-Glo kit (Promega). Compounds were dissolved in DMSO such that the final concentration of DMSO was 1% in the assay. All reactions/incubations are performed at 25° C. Compound (2 μl) and either Rho kinase 1 or 2 (4 μl) were mixed and incubated for 30 mins. Reactions were initiated by addition of ATP (4 μl) such that the final concentration of ATP in the assay was 10 μM. After a 1 hour incubation 10 μl of ADP-Glo Reagent was added and after a further 45 minute incubation 20 μl of Kinase Detection Buffer was added and the mixture incubated for a further 30 minutes. The luminescent signal was measured on a luminometer. […] Compounds were tested in dose-response format and the inhibition of kinase activity was calculated at each concentration of compound. To determine the IC50 (concentration of compound required to inhibit 50% of the enzyme activity) data were fit to a plot of % inhibition vs Log10 compound concentration using a sigmoidal fit with a variable slope and fixing the maximum to 100% and the minimum to 0%. To determine the Ki values the Cheng-Prusoff equation was utilized (Ki=IC50/(1+[S]/Km).

Assay [2] deals with ROCK 1 (Rho kinase 1) (Homo sapiens, UniProt Q13464). The assay can be described thus: In vitro inhibitory activity assay (ADP-Glo), Rho kinase 1. In kind it is biochemical. As to conditions: Ki by Cheng-Prusoff from IC50; 10 μM ATP, 25° C. On the procedure: as §1, §2
Sequence of ROCK 1 (Rho kinase 1) (Q13464 whole entry): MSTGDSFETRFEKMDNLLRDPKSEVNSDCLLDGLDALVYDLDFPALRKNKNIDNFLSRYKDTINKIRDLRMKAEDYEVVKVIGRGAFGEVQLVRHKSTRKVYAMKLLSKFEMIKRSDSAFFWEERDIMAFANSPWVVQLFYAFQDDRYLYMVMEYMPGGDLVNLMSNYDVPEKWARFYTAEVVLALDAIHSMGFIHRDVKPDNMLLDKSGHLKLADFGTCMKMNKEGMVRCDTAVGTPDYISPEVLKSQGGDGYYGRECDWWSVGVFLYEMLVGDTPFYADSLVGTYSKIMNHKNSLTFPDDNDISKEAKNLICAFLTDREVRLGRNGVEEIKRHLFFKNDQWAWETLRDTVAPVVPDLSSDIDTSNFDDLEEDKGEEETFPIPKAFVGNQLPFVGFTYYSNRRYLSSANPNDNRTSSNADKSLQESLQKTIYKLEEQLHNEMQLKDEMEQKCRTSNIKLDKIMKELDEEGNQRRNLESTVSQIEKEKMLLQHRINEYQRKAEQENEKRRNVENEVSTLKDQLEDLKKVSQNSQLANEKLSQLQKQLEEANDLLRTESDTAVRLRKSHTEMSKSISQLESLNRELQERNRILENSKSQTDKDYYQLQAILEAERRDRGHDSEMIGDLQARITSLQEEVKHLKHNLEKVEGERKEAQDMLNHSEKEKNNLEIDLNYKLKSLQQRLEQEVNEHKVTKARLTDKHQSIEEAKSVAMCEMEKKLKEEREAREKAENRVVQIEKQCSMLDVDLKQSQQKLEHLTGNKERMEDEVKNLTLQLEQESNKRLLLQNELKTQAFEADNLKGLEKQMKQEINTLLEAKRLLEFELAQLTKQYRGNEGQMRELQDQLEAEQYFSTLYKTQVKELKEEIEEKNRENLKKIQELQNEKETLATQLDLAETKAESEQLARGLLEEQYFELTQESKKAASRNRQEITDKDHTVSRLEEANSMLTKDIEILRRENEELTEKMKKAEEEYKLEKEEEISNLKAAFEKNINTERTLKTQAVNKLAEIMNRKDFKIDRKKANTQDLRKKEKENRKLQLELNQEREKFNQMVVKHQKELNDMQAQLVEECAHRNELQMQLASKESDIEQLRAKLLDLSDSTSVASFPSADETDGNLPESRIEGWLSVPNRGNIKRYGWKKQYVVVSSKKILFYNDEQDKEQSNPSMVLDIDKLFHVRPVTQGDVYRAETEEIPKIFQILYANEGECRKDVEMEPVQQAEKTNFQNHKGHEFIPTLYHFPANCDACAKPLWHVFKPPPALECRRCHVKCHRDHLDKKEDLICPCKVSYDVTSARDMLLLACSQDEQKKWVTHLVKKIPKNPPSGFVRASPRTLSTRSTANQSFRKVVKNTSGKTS

Sequence of ROCK 2 (Rho kinase 2) (O75116 whole entry): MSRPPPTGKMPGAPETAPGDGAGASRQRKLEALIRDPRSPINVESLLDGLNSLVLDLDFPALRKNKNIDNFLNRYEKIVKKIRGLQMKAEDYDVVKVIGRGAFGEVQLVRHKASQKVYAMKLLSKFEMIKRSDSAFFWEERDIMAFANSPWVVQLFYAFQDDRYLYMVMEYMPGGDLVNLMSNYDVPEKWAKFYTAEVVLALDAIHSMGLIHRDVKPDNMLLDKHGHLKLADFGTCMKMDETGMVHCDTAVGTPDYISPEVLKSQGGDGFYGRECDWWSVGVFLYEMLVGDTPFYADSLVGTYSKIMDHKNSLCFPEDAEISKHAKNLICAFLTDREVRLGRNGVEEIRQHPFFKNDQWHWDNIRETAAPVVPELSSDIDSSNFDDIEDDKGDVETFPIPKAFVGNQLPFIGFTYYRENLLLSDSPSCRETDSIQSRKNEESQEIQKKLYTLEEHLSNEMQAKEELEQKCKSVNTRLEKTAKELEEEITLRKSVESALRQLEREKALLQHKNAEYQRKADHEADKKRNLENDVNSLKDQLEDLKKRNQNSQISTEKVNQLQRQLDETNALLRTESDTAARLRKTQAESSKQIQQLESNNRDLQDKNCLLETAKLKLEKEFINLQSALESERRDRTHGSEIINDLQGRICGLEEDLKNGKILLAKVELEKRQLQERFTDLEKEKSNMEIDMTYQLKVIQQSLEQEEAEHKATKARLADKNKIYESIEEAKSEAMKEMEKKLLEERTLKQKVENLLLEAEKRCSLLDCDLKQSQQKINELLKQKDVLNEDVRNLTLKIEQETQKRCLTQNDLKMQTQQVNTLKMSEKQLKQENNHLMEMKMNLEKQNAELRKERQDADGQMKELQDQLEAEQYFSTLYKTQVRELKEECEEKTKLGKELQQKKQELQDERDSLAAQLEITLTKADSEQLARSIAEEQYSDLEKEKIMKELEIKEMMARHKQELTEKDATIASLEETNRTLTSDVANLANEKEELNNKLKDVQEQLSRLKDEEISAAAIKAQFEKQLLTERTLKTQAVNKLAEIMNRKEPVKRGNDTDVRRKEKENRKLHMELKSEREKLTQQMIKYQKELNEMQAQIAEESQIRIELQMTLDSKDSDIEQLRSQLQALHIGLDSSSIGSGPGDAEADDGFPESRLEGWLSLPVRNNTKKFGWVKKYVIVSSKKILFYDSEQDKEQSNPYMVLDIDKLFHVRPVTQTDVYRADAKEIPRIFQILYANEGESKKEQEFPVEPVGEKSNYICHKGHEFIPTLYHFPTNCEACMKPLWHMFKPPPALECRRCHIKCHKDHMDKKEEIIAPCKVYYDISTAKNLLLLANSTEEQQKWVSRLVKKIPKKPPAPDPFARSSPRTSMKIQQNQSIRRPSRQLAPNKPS

The term Ki denotes a dissociation constant, usually derived from enzyme kinetics or from competition with a known ligand. A lower Ki goes with tighter binding. With `Cc1c[nH]c2nccc(Oc3ccc(C[C@H](N)C(=O)NC4CCN(CCCF)CC4)cc3F)c12` [Example 15, (S)-2-Amino-3-(3-fluoro-4-((3-methyl-1H-pyrrolo[2,3-b]pyridin-4-yl)oxy)phenyl)-N-(1-(3-fluoropropyl)piperidin-4-yl)propanamide], the inhibitory constant (Ki) in assay [1] and in assay [2] was less than 3 nM in each case.
Take `Cc1c[nH]c2nccc(Oc3ccc(C[C@H](N)C(=O)NC4CCN(C5CCC5)CC4)cc3F)c12` [Example 1, (S)-2-Amino-N-(1-cyclobutylpiperidin-4-yl)-3-(3-fluoro-4-((3-methyl-1H-pyrrolo[2,3-b]pyridin-4-yl)oxy)phenyl)propanamide]: the Ki in assay [1] and in assay [2] was less than 3 nM each time.
With `Cc1c[nH]c2nccc(Oc3ccc(C[C@H](N)C(=O)N4CCc5ncccc5C4)cc3F)c12` [Example 26, (S)-2-amino-1-(7,8-dihydro-1,6-naphthyridin-6(5H)-yl)-3-(3-fluoro-4-((3-methyl-1H-pyrrolo[2,3-b]pyridin-4-yl)oxy)phenyl)propan-1-one], the Ki in assay [1] and in assay [2] was less than 3 nM in each case.
Turning to `CNC(=O)C1(NC(=O)[C@@H](N)Cc2ccc(Oc3ncnc4[nH]cc(C)c34)c(F)c2)CCCCC1` [Example 33, (S)-1-(2-amino-3-(3-fluoro-4-((5-methyl-7H-pyrrolo[2,3-d]pyrimidin-4-yl)oxy)phenyl)propanamido)-N-methylcyclohexanecarboxamide], the Ki in assay [1] and in assay [2] was less than 3 nM in each case.
Consider `Cc1c[nH]c2ncnc(Oc3ccc(C[C@H](N)C(=O)N4CC[C@H](S(=O)(=O)c5ccccc5)C4)cc3F)c12` [Example 38, (S)-2-Amino-3-(3-fluoro-4-((5-methyl-7H-pyrrolo[2,3-d]pyrimidin-4-yl)oxy)phenyl)-1-((S)-3-(phenylsulfonyl)pyrrolidin-1-yl)propan-1-one], for which the inhibitory constant (Ki) in assay [1] and in assay [2] was less than 3 nM throughout.
As for `Cc1c[nH]c2nccc(Oc3ccc(C[C@H](N)C(=O)NC4(C)CCN(C)CC4)cc3F)c12` [Example 4, (S)-2-Amino-N-(1,4-dimethylpiperidin-4-yl)-3-(3-fluoro-4-((3-methyl-1H-pyrrolo[2,3-b]pyridin-4-yl)oxy)phenyl)propanamide], the inhibition constant (Ki) in assay [1] and in assay [2] was less than 3 nM throughout.
With `Cc1c[nH]c2nccc(Oc3c(F)cc(C[C@H](N)C(=O)N4CCC(S(=O)(=O)c5ccccc5)CC4)cc3F)c12` [Example 42, (S)-2-amino-3-(3,5-difluoro-4-((3-methyl-1H-pyrrolo[2,3-b]pyridin-4-yl)oxy)phenyl)-1-(4-(phenylsulfonyl)piperidin-1-yl)propan-1-one], the inhibition constant Ki in assay [1] and in assay [2] was less than 3 nM each time.
Regarding `Cc1c[nH]c2nccc(Oc3ccc(C[C@H](N)C(=O)N4C[C@@H]5C[C@H]4CN5C4CC4)cc3F)c12` [Example 13, (S)-2-Amino-1-((1S,4S)-5-cyclopropyl-2,5-diazabicyclo[2.2.1]heptan-2-yl)-3-(3-fluoro-4-((3-methyl-1H-pyrrolo[2,3-b]pyridin-4-yl)oxy)phenyl)propan-1-one], the inhibition constant Ki in assay [1] and in assay [2] was less than 3 nM in each case.
`Cc1c[nH]c2nccc(Oc3ccc(C[C@H](N)C(=O)N4CCc5ncsc5C4)cc3F)c12` [Example 24, (S)-2-Amino-1-(6,7-dihydrothiazolo[5,4-c]pyridin-5(4H)-yl)-3-(3-fluoro-4-((3-methyl-1H-pyrrolo[2,3-b]pyridin-4-yl)oxy)phenyl)propan-1-one]: the Ki in assay [1] and in assay [2] was less than 3 nM throughout.
On to `Cc1c[nH]c2nccc(Oc3ccc(C[C@H](N)C(=O)NC4CCN(C)CC4(C)C)cc3F)c12` (single isomer, unassigned) [Example 8b], for which the Ki in assay [1] and in assay [2] was less than 3 nM in each case.
In the case of `Cc1c[nH]c2ncnc(Oc3ccc(C[C@H](N)C(=O)NC4(CO)CCCCC4)cc3F)c12` [Example 35, (S)-2-Amino-3-(3-fluoro-4-((5-methyl-7H-pyrrolo[2,3-d]pyrimidin-4-yl)oxy)phenyl)-N-(1-(hydroxymethyl)cyclohexyl)propanamide], the Ki in assay [1] and in assay [2] was less than 3 nM in each case.
